{"source": "ChEMBL document CHEMBL3580622", "about": "(J Nat Prod, 2015)", "key": {"A549": {"system": "A549", "assay": "Cytotoxicity against human A549 cells assessed as reduction in cell viability after 48 hrs by MTT assay", "type": "functional, cell-based", "settings": "A549, 48 h"}, "HL-60": {"system": "HL-60", "assay": "Cytotoxicity against human HL60 cells assessed as reduction in cell viability after 48 hrs by MTT assay", "type": "functional, cell-based", "settings": "HL-60, 48 h"}, "MCF7": {"system": "MCF7", "assay": "Cytotoxicity against human MCF7 cells assessed as reduction in cell viability after 48 hrs by MTT assay", "type": "functional, cell-based", "settings": "MCF7, 48 h"}, "SMMC-7721": {"system": "SMMC-7721", "assay": "Cytotoxicity against human SMMC7721 cells assessed as reduction in cell viability after 48 hrs by MTT assay", "type": "functional, cell-based", "settings": "SMMC-7721, 48 h"}, "SW480": {"system": "SW480", "assay": "Cytotoxicity against human SW480 cells assessed as reduction in cell viability after 48 hrs by MTT assay", "type": "functional, cell-based", "settings": "SW480, 48 h"}, "Acetylcholinesterase": {"target": "Acetylcholinesterase (Homo sapiens, UniProt P22303)", "sequence (P22303 whole entry)": "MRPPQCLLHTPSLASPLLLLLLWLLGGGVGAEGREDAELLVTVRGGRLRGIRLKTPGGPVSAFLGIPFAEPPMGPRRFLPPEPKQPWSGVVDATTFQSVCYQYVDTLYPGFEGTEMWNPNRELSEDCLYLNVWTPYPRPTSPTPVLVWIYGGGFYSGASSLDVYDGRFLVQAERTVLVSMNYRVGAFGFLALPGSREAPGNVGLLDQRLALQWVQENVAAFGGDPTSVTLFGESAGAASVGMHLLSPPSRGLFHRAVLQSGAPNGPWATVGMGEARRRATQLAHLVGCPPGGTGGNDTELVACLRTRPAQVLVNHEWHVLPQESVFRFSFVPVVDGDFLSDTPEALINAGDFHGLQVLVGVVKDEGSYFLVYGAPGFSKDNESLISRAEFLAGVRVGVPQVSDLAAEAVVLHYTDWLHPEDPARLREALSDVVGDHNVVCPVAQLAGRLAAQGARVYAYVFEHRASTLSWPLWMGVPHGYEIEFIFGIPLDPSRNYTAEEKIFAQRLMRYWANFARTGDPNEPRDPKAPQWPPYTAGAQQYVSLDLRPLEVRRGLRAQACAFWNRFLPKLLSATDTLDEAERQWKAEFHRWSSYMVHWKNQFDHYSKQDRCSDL", "assay": "Inhibition of human erythrocytes acetylcholinesterase after 30 mins using S-acetylthiocholine iodide substrate by spectrophotometry based Ellman method"}}}
{"smiles": "CCC(C)C(=O)[C@]12C(=O)[C@]3(CC=C(C)C)OC1(O)[C@](CC=C(C)C)(C[C@H](CC=C(C)C)[C@@]2(C)CCC=C(C)C)C3=O", "note": "(some centres undefined)", "values": [{"measurement": "IC50", "setting": "A549", "result": "> 40", "unit": "µM"}, {"measurement": "IC50", "setting": "HL-60", "result": "> 40", "unit": "µM"}, {"measurement": "IC50", "setting": "MCF7", "result": "> 40", "unit": "µM"}, {"measurement": "IC50", "setting": "SMMC-7721", "result": "> 40", "unit": "µM"}, {"measurement": "IC50", "setting": "SW480", "result": "> 40", "unit": "µM"}]}
{"smiles": "CC(C)=CC[C@]12C[C@@H]3[C@H](C=C(C)C)[C@](CC=C(C)C)(C1=O)C(=O)[C@](C(=O)c1ccccc1)(C2=O)C3(C)C", "note": "[PLUKENETIONE A]", "values": [{"measurement": "IC50", "setting": "A549", "result": 19.8, "unit": "µM"}, {"measurement": "IC50", "setting": "HL-60", "result": 23.6, "unit": "µM"}, {"measurement": "IC50", "setting": "MCF7", "result": 27.7, "unit": "µM"}, {"measurement": "IC50", "setting": "SMMC-7721", "result": 16.6, "unit": "µM"}, {"measurement": "IC50", "setting": "SW480", "result": "> 40", "unit": "µM"}]}
{"smiles": "CC(C)=CCC/C(C)=C/C[C@]12C[C@@H]3[C@@H]4[C@@H](O)C(C)(C)[C@@H](C(C)C)CC4(C1=O)C(=O)[C@](C(=O)c1ccccc1)(C2=O)C3(C)C", "values": [{"measurement": "IC50", "setting": "A549", "result": 13.3, "unit": "µM"}, {"measurement": "IC50", "setting": "HL-60", "result": 14.5, "unit": "µM"}, {"measurement": "IC50", "setting": "MCF7", "result": 17.6, "unit": "µM"}, {"measurement": "IC50", "setting": "SMMC-7721", "result": 14.2, "unit": "µM"}, {"measurement": "IC50", "setting": "SW480", "result": 19.1, "unit": "µM"}]}
{"smiles": "CC(C)=CC[C@]12C[C@@H]3[C@@H]4[C@@H](O)C(C)(C)[C@@H](C(C)C)CC4(C1=O)C(=O)[C@](C(=O)c1ccccc1)(C2=O)C3(C)C", "values": [{"measurement": "IC50", "setting": "Acetylcholinesterase", "result": 26.4, "unit": "µM"}, {"measurement": "IC50", "setting": "A549", "result": 14.2, "unit": "µM"}, {"measurement": "IC50", "setting": "HL-60", "result": 16.5, "unit": "µM"}, {"measurement": "IC50", "setting": "MCF7", "result": 14.1, "unit": "µM"}, {"measurement": "IC50", "setting": "SMMC-7721", "result": 16.5, "unit": "µM"}, {"measurement": "IC50", "setting": "SW480", "result": 17.4, "unit": "µM"}]}
{"smiles": "C/C(=C\\C[C@]12C[C@H]3C[C@@H]4C(C)(C)CC[C@@]4(C1=O)C(=O)[C@](C(=O)c1ccccc1)(C2=O)C3(C)C)CC/C=C/C(C)C", "values": [{"measurement": "IC50", "setting": "Acetylcholinesterase", "result": 9.8, "unit": "µM"}]}
{"smiles": "CC(C)=CCC[C@]1(C)[C@@H](CC=C(C)C)C[C@]23C[C@@H](C(C)(C)O)OC2=C(CC=C(C)C)C(=O)[C@@]1(C(=O)c1ccccc1)C3=O", "values": [{"measurement": "IC50", "setting": "A549", "result": "> 40", "unit": "µM"}, {"measurement": "IC50", "setting": "HL-60", "result": "> 40", "unit": "µM"}, {"measurement": "IC50", "setting": "MCF7", "result": "> 40", "unit": "µM"}, {"measurement": "IC50", "setting": "SMMC-7721", "result": "> 40", "unit": "µM"}, {"measurement": "IC50", "setting": "SW480", "result": "> 40", "unit": "µM"}]}
{"smiles": "CCC(C)C(=O)[C@@]12C(=O)C(CC=C(C)C)=C3O[C@H](C(C)(C)O)C[C@]3(C[C@H](CC=C(C)C)[C@@]1(C)CCC=C(C)C)C2=O", "note": "(some centres undefined)", "values": [{"measurement": "IC50", "setting": "A549", "result": "> 40", "unit": "µM"}, {"measurement": "IC50", "setting": "HL-60", "result": "> 40", "unit": "µM"}, {"measurement": "IC50", "setting": "MCF7", "result": "> 40", "unit": "µM"}, {"measurement": "IC50", "setting": "SMMC-7721", "result": "> 40", "unit": "µM"}, {"measurement": "IC50", "setting": "SW480", "result": "> 40", "unit": "µM"}]}
{"smiles": "C=C(C)[C@H]1CC[C@@](C)(O)[C@@H](C2=C(O)C(CC=C(C)C)(CC=C(C)C)C(=O)C(C(=O)C(C)C)=C2O)C1", "values": [{"measurement": "IC50", "setting": "Acetylcholinesterase", "result": 25.4, "unit": "µM"}]}
{"smiles": "CC(C)=CCC1(CC=C(C)C)C(=O)[C@]2(C[C@H]3[C@@H](CC[C@@]3(C)O)[C@](C)(O)C2)C(=O)C(C(=O)C(C)C)=C1O", "values": [{"measurement": "IC50", "setting": "A549", "result": "> 40", "unit": "µM"}, {"measurement": "IC50", "setting": "HL-60", "result": "> 40", "unit": "µM"}, {"measurement": "IC50", "setting": "MCF7", "result": "> 40", "unit": "µM"}, {"measurement": "IC50", "setting": "SMMC-7721", "result": "> 40", "unit": "µM"}, {"measurement": "IC50", "setting": "SW480", "result": "> 40", "unit": "µM"}]}
{"smiles": "CC(C)=CCC[C@]1(C)[C@@H](CC=C(C)C)C[C@]2(CC=C(C)C)C(=O)C(CC=C(C)C)=C(O)[C@@]1(C(=O)C(C)C)C2=O", "values": [{"measurement": "IC50", "setting": "A549", "result": "> 40", "unit": "µM"}, {"measurement": "IC50", "setting": "HL-60", "result": "> 40", "unit": "µM"}, {"measurement": "IC50", "setting": "MCF7", "result": "> 40", "unit": "µM"}, {"measurement": "IC50", "setting": "SMMC-7721", "result": "> 40", "unit": "µM"}, {"measurement": "IC50", "setting": "SW480", "result": "> 40", "unit": "µM"}]}
{"smiles": "CC(C)=CC[C@H]1C[C@]23C[C@H]4C(C)(C)c5ccccc5C(=O)[C@]45C(=O)[C@](CC=C(C)C)(C2=O)[C@@H](CC=C(C)C)[C@@]1(C)[C@@]35O", "values": [{"measurement": "IC50", "setting": "A549", "result": 19.3, "unit": "µM"}, {"measurement": "IC50", "setting": "HL-60", "result": 14, "unit": "µM"}, {"measurement": "IC50", "setting": "MCF7", "result": 27.7, "unit": "µM"}, {"measurement": "IC50", "setting": "SMMC-7721", "result": 20.8, "unit": "µM"}, {"measurement": "IC50", "setting": "SW480", "result": "> 40", "unit": "µM"}]}
{"smiles": "CC(C)=CC[C@]12C[C@@H]3[C@@H]4[C@@H](O)C(C)(C)[C@@H](C(C)(C)O)CC4(C1=O)C(=O)[C@](C(=O)c1ccccc1)(C2=O)C3(C)C", "values": [{"measurement": "IC50", "setting": "A549", "result": 24.9, "unit": "µM"}, {"measurement": "IC50", "setting": "HL-60", "result": 17.1, "unit": "µM"}, {"measurement": "IC50", "setting": "MCF7", "result": 28.4, "unit": "µM"}, {"measurement": "IC50", "setting": "SMMC-7721", "result": 20.8, "unit": "µM"}, {"measurement": "IC50", "setting": "SW480", "result": "> 40", "unit": "µM"}]}
{"smiles": "CC(C)=CCC[C@]1(C)[C@@H](CC=C(C)C)C[C@]23C[C@@H](C(C)(C)O)OC2=C(CC=C(C)C)C(=O)[C@@]1(C(=O)C(C)C)C3=O", "values": [{"measurement": "IC50", "setting": "A549", "result": "> 40", "unit": "µM"}, {"measurement": "IC50", "setting": "HL-60", "result": "> 40", "unit": "µM"}, {"measurement": "IC50", "setting": "MCF7", "result": "> 40", "unit": "µM"}, {"measurement": "IC50", "setting": "SMMC-7721", "result": "> 40", "unit": "µM"}, {"measurement": "IC50", "setting": "SW480", "result": "> 40", "unit": "µM"}]}
{"smiles": "CCC(C)C(=O)[C@]12C(=O)[C@]3(CC=C(C)C)C[C@H](CC=C(C)C)[C@@]1(C)CC[C@@H](C(C)(C)O)OC2=C(CC=C(C)C)C3=O", "note": "(some centres undefined)", "values": [{"measurement": "IC50", "setting": "Acetylcholinesterase", "result": 37.2, "unit": "µM"}]}
{"smiles": "CC(C)=CCC/C(C)=C/C[C@]12C[C@@H]3[C@H](C=C(C)C)[C@](CC=C(C)C)(C1=O)C(=O)[C@](C(=O)c1ccccc1)(C2=O)C3(C)C", "values": [{"measurement": "IC50", "setting": "A549", "result": "> 40", "unit": "µM"}, {"measurement": "IC50", "setting": "HL-60", "result": "> 40", "unit": "µM"}, {"measurement": "IC50", "setting": "MCF7", "result": "> 40", "unit": "µM"}, {"measurement": "IC50", "setting": "SMMC-7721", "result": "> 40", "unit": "µM"}, {"measurement": "IC50", "setting": "SW480", "result": "> 40", "unit": "µM"}]}
{"smiles": "CC(=O)O[C@H]1C(=O)[C@@]2(C)[C@H]([C@H](OC(=O)c3ccccc3)[C@]3(O)C[C@H](OC(=O)[C@H](O)[C@@H](NC(=O)c4ccccc4)c4ccccc4)C(C)=C1C3(C)C)[C@]1(OC(C)=O)CO[C@@H]1C[C@@H]2O", "note": "[PACLITAXEL]", "values": [{"measurement": "IC50", "setting": "A549", "result": "< 0.008", "unit": "µM"}, {"measurement": "IC50", "setting": "HL-60", "result": "< 0.008", "unit": "µM"}, {"measurement": "IC50", "setting": "MCF7", "result": "< 0.008", "unit": "µM"}, {"measurement": "IC50", "setting": "SMMC-7721", "result": "< 0.008", "unit": "µM"}, {"measurement": "IC50", "setting": "SW480", "result": "< 0.008", "unit": "µM"}]}
{"smiles": "CC(C)=CCC[C@]1(C)[C@@H](CC=C(C)C)C[C@]2(CC=C(C)C)C(=O)[C@@]3(CC=C(C)C)OC2(O)[C@]1(C(=O)C(C)C)C3=O", "values": [{"measurement": "IC50", "setting": "A549", "result": "> 40", "unit": "µM"}, {"measurement": "IC50", "setting": "HL-60", "result": "> 40", "unit": "µM"}, {"measurement": "IC50", "setting": "MCF7", "result": "> 40", "unit": "µM"}, {"measurement": "IC50", "setting": "SMMC-7721", "result": "> 40", "unit": "µM"}, {"measurement": "IC50", "setting": "SW480", "result": "> 40", "unit": "µM"}]}
